Target: T1, c-Met kinase (recombinant c-Met) (Homo sapiens, UniProt P08581)
T1 construct: 0.27 nM recombinant c-Met
Experiment: In vitro kinase assay I (homogeneous time-resolved fluorescence tyrosine kinase assay)
Format: biochemical
How it was run: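 Biotinylated peptide (0.5 μM) phosphorylated by 0.2 nM recombinant c-Met with 50 μM MgATP, 60 min at room temperature, pH 7.4, 5% DMSO. EDTA stop; HTRF read with Eu-anti-phosphotyrosine antibody and streptavidin-APC. IC50 from 4-parameter logistic fit.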

T1 sequence (P08581 25-1390): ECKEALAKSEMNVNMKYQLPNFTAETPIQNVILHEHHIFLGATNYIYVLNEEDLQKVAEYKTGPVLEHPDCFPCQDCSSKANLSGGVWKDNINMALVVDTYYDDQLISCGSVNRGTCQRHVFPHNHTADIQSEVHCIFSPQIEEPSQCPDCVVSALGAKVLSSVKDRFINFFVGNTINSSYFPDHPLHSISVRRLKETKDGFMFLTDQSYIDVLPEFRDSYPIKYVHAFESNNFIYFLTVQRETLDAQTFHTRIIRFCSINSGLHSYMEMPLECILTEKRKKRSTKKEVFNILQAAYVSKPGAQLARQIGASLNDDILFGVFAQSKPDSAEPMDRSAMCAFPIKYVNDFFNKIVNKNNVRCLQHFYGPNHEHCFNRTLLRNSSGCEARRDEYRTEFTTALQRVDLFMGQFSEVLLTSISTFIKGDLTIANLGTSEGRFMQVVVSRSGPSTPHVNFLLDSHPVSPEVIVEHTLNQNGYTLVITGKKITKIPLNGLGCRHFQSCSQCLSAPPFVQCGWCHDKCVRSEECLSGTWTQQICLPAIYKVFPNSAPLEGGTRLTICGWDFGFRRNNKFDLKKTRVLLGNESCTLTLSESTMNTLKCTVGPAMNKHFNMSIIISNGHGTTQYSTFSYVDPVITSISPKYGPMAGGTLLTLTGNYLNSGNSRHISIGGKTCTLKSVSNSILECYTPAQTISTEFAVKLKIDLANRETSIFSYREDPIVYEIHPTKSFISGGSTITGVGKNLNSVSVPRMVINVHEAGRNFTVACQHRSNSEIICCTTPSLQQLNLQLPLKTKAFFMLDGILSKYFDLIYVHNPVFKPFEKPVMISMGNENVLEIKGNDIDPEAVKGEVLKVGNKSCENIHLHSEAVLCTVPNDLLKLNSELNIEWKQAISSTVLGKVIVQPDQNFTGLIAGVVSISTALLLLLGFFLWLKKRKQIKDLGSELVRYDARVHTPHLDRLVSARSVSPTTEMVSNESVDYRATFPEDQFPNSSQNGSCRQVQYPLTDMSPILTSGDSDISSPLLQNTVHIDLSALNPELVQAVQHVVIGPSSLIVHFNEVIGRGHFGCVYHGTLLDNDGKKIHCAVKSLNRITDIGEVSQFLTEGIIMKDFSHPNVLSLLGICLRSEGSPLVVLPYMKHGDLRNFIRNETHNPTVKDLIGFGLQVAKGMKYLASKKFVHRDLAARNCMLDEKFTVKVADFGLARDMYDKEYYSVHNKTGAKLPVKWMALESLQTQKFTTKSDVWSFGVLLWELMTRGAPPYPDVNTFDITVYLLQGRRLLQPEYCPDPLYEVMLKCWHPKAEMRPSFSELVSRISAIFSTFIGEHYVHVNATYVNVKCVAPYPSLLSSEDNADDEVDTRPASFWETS

`Cn1cc(-n2ccc(=O)c(Cc3cccc(NC(=O)OCC(F)CN4CCOCC4)c3)n2)cn1` (racemic) [Example 638, rac-2-Fluoro-3-morpholin-4-ylpropyl (3-{[1-(1-methyl-1H-pyrazol-4-yl)-4-oxo-1,4-dihydropyridazin-3-yl]methyl}phenyl)carbamate] and `CCOC(=O)Nc1cccc(C(F)c2nn(-c3cnn(C)c3)ccc2=O)c1` (racemic) [Example 639, rac-Ethyl(3-{fluoro[1-(1-methyl-1H-pyrazol-4-yl)-4-oxo-1,4-dihydropyridazin-3-yl]methyl}phenyl)carbamate] cannot be ordered by IC50: less than 100 nM for the first, less than 100 nM for the second.

`CCOC(=O)Nc1cccc(C(F)c2nn(-c3ccccc3)ccc2=O)c1` (racemic) [Example 640, rac-Ethyl-{3-[fluoro(4-oxo-1-phenyl-1,4-dihydropyridazin-3-yl)methyl]phenyl}carbamate] and `CCOC(=O)Nc1cccc(C(C)c2nn(-c3ccccc3)ccc2=O)c1` (racemic) [Example 651, rac-Ethyl {3-[1-(4-oxo-1-phenyl-1,4-dihydropyridazin-3-yl)ethyl]phenyl}carbamate] fall in the same range of IC50: 100 to 1000 nM for the first, 100 to 1000 nM for the second.

First: CCOC(=O)Nc1cccc(C(F)c2nn(-c3ccc(Cl)cc3)ccc2=O)c1 (racemic) [Example 641, rac-Ethyl(3-{[1-(4-chlorophenyl)-4-oxo-1,4-dihydropyridazin-3-yl](fluoro)methyl}phenyl)carbamate]
Second: [2H]C([2H])([2H])n1cc(-n2ccc(=O)c(C(F)c3cccc(-c4ncc(OCC)cn4)c3)n2)cn1 (racemic) [Example 657, rac-3-[[3-(5-Ethoxypyrimidin-2-yl)phenyl](fluoro)methyl]-1-(1-methyl-1H-pyrazol-4-yl)pyridazin-4(1H)-one-d3]
The IC50 of the first is higher: 100 to 1000 nM for the first, less than 100 nM for the second. The second is the more potent here.

`CCOc1cnc(-c2cccc(C(O)c3nn(-c4cnn(C)c4)ccc3=O)c2)nc1` (racemic) [Example 654, rac-3-[[3-(5-Ethoxypyrimidin-2-yl)phenyl](hydroxy)methyl]-1-(1-methyl-1H-pyrazol-4-yl)pyridazin-4(1H)-one] and `CCOc1cnc(-c2cccc(C(OC)c3nn(-c4cnn(C)c4)ccc3=O)c2)nc1` (racemic) [Example 659, rac-3-[[3-(5-Ethoxypyrimidin-2-yl)phenyl](methoxy)methyl]-1-(1-methyl-1H-pyrazol-4-yl)pyridazin-4(1H)-one] fall in the same range of IC50: 100 to 1000 nM for the first, 100 to 1000 nM for the second.

`[2H]C([2H])([2H])n1cc(-n2ccc(=O)c(C(F)c3cccc(-c4ncc(OC([2H])([2H])C([2H])([2H])[2H])cn4)c3)n2)cn1` (racemic) [Example 658, rac-3-[[3-(5-Ethoxypyrimidin-2-yl)phenyl](fluoro)methyl]-1-(1-methyl-1H-pyrazol-4-yl)pyridazin-4(1H)-one-d8] and `CCOc1ccnc(-c2cccc(C(C)c3nn(-c4cnn(C)c4)ccc3=O)c2)n1` (racemic) [Example 678, rac-3-{1-[3-(4-Ethoxypyrimidin-2-yl)phenyl]ethyl}-1-(1-methyl-1H-pyrazol-4-yl)pyridazin-4(1H)-one] cannot be ordered by IC50: less than 100 nM for the first, less than 100 nM for the second.

`CCOc1cnc(-c2cccc(C(CCC#N)c3nn(-c4cn[nH]c4)ccc3=O)c2)nc1` (racemic) [Example 665, rac-4-[3-(5-Ethoxypyrimidin-2-yl)phenyl]-4-[4-oxo-1-(1H-pyrazol-4-yl)-1,4-dihydropyridazin-3-yl]butanenitrile] and `COCCOc1ccnc(-c2cccc(C(C)c3nn(-c4cnn(C)c4)ccc3=O)c2)n1` (racemic) [Example 679, rac-3-(1-{3-[4-(2-methoxyethoxy)pyrimidin-2-yl]phenyl}ethyl)-1-(1-methyl-1H-pyrazol-4-yl)pyridazin-4(1H)-one] fall in the same range of IC50: 100 to 1000 nM for the first, 100 to 1000 nM for the second.

With `CC(C)COC(=O)Nc1cccc(Cc2nn(-c3cnn(CCCC(=O)NCC(C)O)c3)ccc2=O)c1` (racemic) [Example 706, rac-2-methylpropyl (3-{[1-(1-{4-[(2-hydroxypropyl)amino]-4-oxobutyl}-1H-pyrazol-4-yl)-4-oxo-1,4-dihydropyridazin-3-yl]methyl}phenyl) carbamate] the IC50 was 100 to 1000 nM.

Reference: patent US20120264735A1 (priority 2009, published 2012)
